Data set [1] has as its system HepG2 xenografts. Description: In vivo activity on xenograft bearing mice. The conditions noted are these: for deaths during the treatment period: 8 mice. How it is done: HepG2 cells were grown in DMEM and 10% FBS until near confluence and then harvested after trypsinization. […] The vehicle was ethanol-PEG400-dextrose solution as described in 5.2.1. The animals were monitored daily for changes in their general appearance, weight and tumor volume. Tumor volume was calculated using the formula: […]. Length (L) and width (W) of the tumor were measured with a digital vernier caliper and reported to 2 decimal places. The shorter of the 2 distances was taken as width. The mice were monitored—for 25-days after which they were euthanized with CO2, the tumors removed by dissection and weighed.

Data set [2] has as its system Human lung fibroblast IMR90 cells. Put plainly: Cell viability on non-malignant cells (MTS, 72 h). Format: cell-based. How it is done: Cell viability was determined from the expression:
The plot was constrained to ≧0 and ≦100%.
Human lung fibroblast IMR90 cells were purchased from ATCC (Rockville, Md.) and grown in Eagle's Minimal Essential Media (EMEM, Sigma Aldrich, Singapore) at 37° C., 5% CO2. […] Seeding density was maintained at 4000 cells per well.

Data set [3] concerns MDA MB 231 cells. Put plainly: Western blot of autophagy marker LC3-II. Conditions: MDA MB 231, 24 h and 48 h. Format: cell-based, human. How it is done: (§1) MDA MB231, PC3 and HepG2 cells were seeded at 65 000 cells/mL per well in […] with DMEM (high glucose, supplemented with 10% FBS, 50 μg/mL penicillin, 50 μg/mL streptomycin) as media. Plates were incubated (24 h, 37° C., 5% CO2) for cells to attach and then treated with test compound (prepared in same media but with 5% FBS) for 24 h or 48 h. Final volume of DMSO per well was kept at 0.05% v/v. After the specified time, the supernatant was removed from the well by pipetting, the cell pellet was trypsinized, and pelleted by centrifugation (150 g, 5 min) and stored in −20° C. Samples were thawed and cells lysed by adding RIPA (radioimmunoprecipitation assay lysis buffer, Thermo Scientific, Rockland, Ill.) (50 μL), kept in ice for 30 min and sonicated for 1 min in an ice bath. Samples were centrifuged (13 000 g, 5 min, 4° C.) to remove cell debris. The supernatant was stored as aliquots at −80° C. and used when required. At the time of use, samples were thawed and protein content determined using the BCA® Protein Assay reagent (Thermo Scientific, Rockland, Ill.). The volume of the lysate was adjusted with deionized water to normalize protein content to 10-20 μg per mL. To this was added Laemmli buffer (4×) and heated to 100° C. for 5 minutes to denature the protein. The samples were resolved by 12% SDS-PAGE gel electrophoresis at 100V for 90 min. The resolved proteins were transferred to polyvinylidene difluoride (PVDF) membranes (Bio-Rad, Singapore) using transfer buffer at 100V for 120 min. Membranes were then treated with 5% blocking buffer (5% non-fat milk and 0.1% Tween-20 in PBS) and probed with the specific antibody (GAPDH, LC3) by incubating the membranes in blocking buffer containing the antibody at 4° C. overnight. After washing the membranes in PBS containing 0.1% Tween 20 (PBST), the membranes were probed with secondary antibodies (horseradish peroxidase anti mouse IgG, Pierce, USA) in blocking buffer at room temperature for 1 h. They were then washed with PBST and developed using an enhanced chemiluminescence procedure (Amersham ECL Advanced Western Blotting Detection Kit, GE, Healthcare, UK). Immunoblots were viewed using the ImageQuant® RT-ECL imager (GE Healthcare) and the image captured with the ImageQuant® TL software. Antibodies were obtained from the following sources: GAPDH (Cell signaling technology, USA), LC3 (Abgent, USA). Test compound was evaluated at 3 concentrations with 2 repeats for each concentration.

Data set [4] concerns PC3 cells. Description: Western blot of autophagy marker LC3-II. The class given is cell-based, human. The conditions noted are these: PC3, 24 h and 48 h. How it is done:
as §1
A general note: In western blotting, separated proteins are transferred to a membrane and probed.

Data set [5] has as its system HepG2 cells. Description: Western blot of autophagy marker LC3-II. The conditions noted are these: HepG2, 24 h and 48 h. The class given is cell-based, human. How it is done:
as §1

The nature of data set [6]: Parallel Artificial Membrane Permeability Assay (PAMPA). Conditions: for Papp at 16 h: PAMPA, pH 7.4. How it is done:
Briefly, determinations were carried out on MultiScreen-IP PAMPA assay (donor) plates (MAIPNTR10) and MultiScreen Receiver Plates (MATRNPS50) from Millipore Corporation (USA) with 1% lecithin (L-α-phosphatidylcholine from lyophilized powder of egg yolk, Sigma Aldrich, USA) in dodecane (ReagentPlus®, Sigma Aldrich, USA) as lipid barrier. 5 μL of 1% lecithin in dodecane was dispensed into the wells of the donor plates. […] The mobile phase was Milli-Q water (0.1% formic acid) and acetonitrile (0.1% formic acid), run on gradient.
Pe was obtained from Equation 1:
[formula] Where VA and VD are the volumes of acceptor (cm^3) and donor (cm^3) wells respectively, A is the area of the surface area of the membrane (0.24 cm^2), t is the permeation time (s); S is the fraction of sample remaining in the donor and acceptor wells after permeation time and is determined from Equation 2, CA and CD are the concentrations (μM) of test/reference compound in acceptor and donor wells respectively.
The Pe of each compound was obtained from at least 3 separate experiments using no less than 2 different stock solutions. For each independent determination, triplicates (3 wells) were run for each compound.
For orientation: In PAMPA a lipid-coated filter parts donor from acceptor wells.

The subject of data set [7] is PC3 cells. Put plainly: In vitro scratch assay (cell migration). The class given is cell-based, human. The conditions noted are these: PC3, 24 h. How it is done: PC3 cells were seeded at 100 000 cells per well in a 6-well plate in media (DMEM, high glucose, 10% FBS, 50 μg/mL penicillin, 50 μg/mL streptomycin) and incubated (37° C., 5% CO2) for 36 hours until confluent. The cell monolayer was scraped in a straight line with a 1 mL pipette tip to create a “scratch” which was also marked at the bottom of the plate with a marker pen. The media was removed from the well which was then washed with PBS. Test compound in 2 mL DMEM (high glucose, 5% FBS) was added to each well (DMSO concentration of 0.05% v/v per well) and the plates were incubated at 37° C., 5% CO2. Control wells with PC3 monolayers were similarly treated. Scratches of approximately the same size were made on control and treated wells. Photographs of the scratched surfaces in wells were taken with a microscope fitted with a camera at the start of incubation and after 24 h. Magnification was kept constant at 40× for all acquired images. These were further analyzed by downloading the images into a Powerpoint® file and measuring (on-screen) the distances between one side of the scratch and the other. For each “scratch”, four or five distances were measured across the length of the scratch in the initial (0 h) image and these same distances were monitored after 24 h. Each compound was tested at 3 concentrations with 3 repeats made for each concentration.

Setting [8] is: IMR-90, further testing, 72 h, mean (SD), read-out: IC50 IMR90.

Data on three molecules can be found in patent publication US9422238B2, “ICMT inhibitors” (National University of Singapore, priority 2012, dated 2016).

Values joined by “and” are separate entries in the source; they are usually repeats but may differ in a detail not shown here. Equal values may be shown once. “Also recorded” adds a separate entry of the source. Read-outs that look alike come from different tables or passages of the source.

Usually IC50 stands for the concentration that inhibits the measured activity by half. As usually defined, the Papp is the rate of passage across a membrane or cell layer, normalised by area and donor concentration. Low readings indicate poor permeation, high ones ready permeation. Turning to `CCCCCCCCn1cc(CN(CC)CC)c2cc(-c3cnc(N)nc3)ccc21` [Compound 8-12, 5-(3-Diethylaminomethyl-1-octyl-1H-indol-5-yl)-pyrimidin-2-ylamine], the “deaths during the treatment period” value in data set [1] (15 mg/kg IP daily, 25 days) is on record as “one animal died”; in data set [1] (30 mg/kg IP daily, 25 days), “Three deaths”. Further, in data set [1] (15 and 30 mg/kg IP daily, p<0.05 vs control), the “reduction in relative tumor volume” value was “Significant reduction in tumor volume was evident from Day 5 onwards for animals receiving 30 mg/kg and Day 7 onwards for animals receiving 15 mg/kg; also recorded: Reduction in tumor volume was significant from Day 5 and Day 7 onwards for animals dosed with 30 mg/kg and 15 mg/kg respectively”. Besides, the “weight of excised tumors vs control” value in data set [1] (after 25 days) was “significant weight loss compared to control”. For the same molecule, the IC50 in data set [2] (IMR-90, Table 6, mean (SD), read-out: IC50 (μM) IMR90) was 2.65 µM; in data set [2] (setting [8]), 2.65 µM. Besides, the “LC3-II content (immunoblot)” value is on record as “increased the content of LC3-II” in data set [3], “increased the content of LC3-II” in data set [4] and “LC3-II bands were detected in HepG2 cells treated only with 0.5 μM but not 0.25 μM” in data set [5]. In data set [6], this molecule came in with an apparent permeability coefficient (Papp) at 16 h of 14.2 ×10⁻⁶ cm/s. Also, in data set [6] (pH 7.4, 16 h agitation, 1% lecithin in dodecane), the “PAMPA Pe (×10^−6 cm/s)” value is 14.2 ×10^−6 cm/s and 14.2 (±1.4) ×10^−6 cm/s. In data set [7], the “gap closure in scratch assay” value was “the gap remained “open” at 2 and 2.5 μM but closed to some extent at a lower concentration of 1.5 μM”.

As to `CCCCCCCCn1c2c(c3cc(-c4cnc(N)nc4)ccc31)CN(C)CC2` [Compound 305, 8-(2′-amino-pyrimidin-5′-yl)-2-methyl-5-n-octyl-1,2,3,4-tetrahydropyrido[4,3-b]indole], the IC50 in data set [2] (setting [8]) came out at 5.29 µM. This molecule came in with an apparent permeability coefficient (Papp) at 16 h in data set [6] of 19.7 ± 0.56 ×10⁻⁶ cm/s.

For `CCCCCCCCn1cc(CC(N)=O)c2cc(-c3cccc(C)c3)ccc21` [Cysmethynil, 2-[5-(3-methylphenyl)-1-octyl-1H-indolo-3-yl]acetamide, reference compound], in data set [1] (xenograft-bearing mice, 25 days), the body weight change result is given as “Weight loss was observed up to Day 11”. The “LC3-II content (immunoblot)” value in data set [3] was “LC3-II accumulation was evident in MDA MB 231 cells treated with cysmethynil at 20 and 22.5 μM, but not at 17.5 μM”; in data set [4] it was “negligible LC3II were observed”; in data set [5] it was “LC3II accumulation was evident after 48 hours but not 24 h”. For the same molecule, the “gap closure in scratch assay” value in data set [7] is “the gap closed to some degree in the presence of 17.5 and 20 μM cysmethynil after 24 h, but remained open in cells treated with 22.5 μM cysmethynil”.
